Target: T1, SUMO (Homo sapiens, UniProt Q9UBT2)
T1 sequence (Q9UBT2 1-640): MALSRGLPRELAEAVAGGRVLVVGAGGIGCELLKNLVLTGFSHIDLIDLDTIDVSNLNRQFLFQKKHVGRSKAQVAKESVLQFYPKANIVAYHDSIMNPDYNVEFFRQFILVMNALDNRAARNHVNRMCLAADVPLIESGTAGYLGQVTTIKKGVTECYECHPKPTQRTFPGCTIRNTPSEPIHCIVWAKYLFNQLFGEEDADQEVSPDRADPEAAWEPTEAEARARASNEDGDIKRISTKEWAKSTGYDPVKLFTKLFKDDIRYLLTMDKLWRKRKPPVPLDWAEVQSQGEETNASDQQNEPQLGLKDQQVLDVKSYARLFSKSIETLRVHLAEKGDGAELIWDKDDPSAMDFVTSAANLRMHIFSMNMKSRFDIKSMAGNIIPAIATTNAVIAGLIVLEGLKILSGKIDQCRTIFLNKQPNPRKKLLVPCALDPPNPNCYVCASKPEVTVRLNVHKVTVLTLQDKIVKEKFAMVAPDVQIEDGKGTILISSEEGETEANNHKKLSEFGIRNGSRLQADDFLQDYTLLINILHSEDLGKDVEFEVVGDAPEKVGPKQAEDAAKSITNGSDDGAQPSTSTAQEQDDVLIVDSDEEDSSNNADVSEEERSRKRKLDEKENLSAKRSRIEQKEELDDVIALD
T1 sequence (Q9UBE0 1-346 partner): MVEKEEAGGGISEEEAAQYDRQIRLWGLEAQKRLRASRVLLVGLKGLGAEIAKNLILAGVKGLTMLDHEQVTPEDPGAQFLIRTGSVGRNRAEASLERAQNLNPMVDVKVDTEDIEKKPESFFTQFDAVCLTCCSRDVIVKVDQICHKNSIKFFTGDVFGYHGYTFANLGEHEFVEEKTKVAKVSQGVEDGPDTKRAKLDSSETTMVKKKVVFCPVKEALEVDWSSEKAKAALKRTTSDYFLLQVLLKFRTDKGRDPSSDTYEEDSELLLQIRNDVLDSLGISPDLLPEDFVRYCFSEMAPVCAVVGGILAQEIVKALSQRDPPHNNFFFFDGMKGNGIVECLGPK
Experiment: SUMO activity (Table I, biological activities)
Format: biochemical
Parameters: key: + (less active); ++ (active); +++ (most active)

Compound	SUMO
O=C(O)C1=C(C(=O)Nc2ccccc2)C2C=CC1(C(Cc1ccccc1)Nc1ccccc1)O2 (stereo not drawn) [Compound 174]	+
C=CC(C)(C)C(Nc1ccccc1)C12C=CC(O1)C(C(=O)OC)=C2C(=O)OC (stereo not drawn) [Compound 188]	++
COC(=O)C1=C(C(=O)OC)C2(C(Nc3ccccc3)C3CCOCC3)C=CC1O2 (stereo not drawn) [Compound 192]	++
COC(=O)C1=C(C(=O)O)C2C=CC1(C(Cc1ccccc1)Nc1cc(F)cc(F)c1)O2 (stereo not drawn) [Compound 203]	++
COC(=O)C1=C(C(=O)Nc2ccncc2)C2C=CC1(C(Cc1ccccc1)Nc1cc(F)cc(F)c1)O2 (stereo not drawn) [Compound 206]	+
COC(=O)C1=C(C(N)=O)C2C=CC1(C(Cc1ccccc1)Nc1cc(F)cc(F)c1)O2 (stereo not drawn) [Compound 207]	+
CCCCC(Nc1ccccc1)C12C=CC(O1)C(C(=O)OC)=C2C(=O)OC (stereo not drawn) [Compound 210]	+++
COC(=O)C1=C(C(=O)OC)C2(C(Cc3ccccc3)Nc3c(F)cccc3F)C=CC1O2 (stereo not drawn) [Compound 228]	++
CCOC(=O)C1=C(C(=O)OCC)C2(C(Cc3ccccc3)Nc3c(F)cccc3F)C=CC1O2 (stereo not drawn) [Compound 230]	++
CCOC(=O)C1=C(C(=O)OCC)C2(C(Cc3ccccc3)Nc3cc(F)cc(F)c3)C=CC1O2 (stereo not drawn) [Compound 234]	++
COC(=O)C1=C(C(=O)OC)C2(C(Cc3ccccc3)N(C)c3ccccc3)C=CC1O2 (stereo not drawn) [Compound 236]	++
COC(=O)C1=C(C(=O)OC)C2(C(Cc3ccccc3)N(C)c3c(F)cccc3F)C=CC1O2 (stereo not drawn) [Compound 237]	+
COC(=O)C1=C(C(=O)NCCCCCNC(=O)OCC2c3ccccc3-c3ccccc32)C2C=CC1(C(Cc1ccccc1)Nc1cc(F)cc(F)c1)O2 (stereo not drawn) [Compound 244]	+
COC(=O)C1=C(C(=O)NC2CCN(C(=O)OC(C)(C)C)CC2)C2C=CC1(C(Cc1ccccc1)Nc1cc(F)cc(F)c1)O2 (stereo not drawn) [Compound 255]	+
COC(=O)C1=C(C(=O)OC)C2(C(Cc3ccccc3)Nc3ccccc3)C=CC1(C)O2 (stereo not drawn) [Compound 259]	++
CCOC(=O)C1=C(C(=O)OCC)C2(C(Cc3ccccc3)Nc3ccccc3)C=CC1(CO)O2 (stereo not drawn) [Compound 265]	++
CCOC(=O)C1=C(C(=O)NC2CCN(C)CC2)C2(CO)C=CC1(C(Cc1ccccc1)Nc1ccccc1)O2 (stereo not drawn) [Compound 269]	++
COC(=O)C1=C(C(=O)OC)C2(C(Cc3ccccc3)Oc3ccccc3)C=CC1O2 (stereo not drawn) [Compound 271]	++

Compound	SUMO
COC(=O)C1=C(C(=O)OC)C2(C(Cc3ccccc3)Nc3ccc(F)cc3)C=CC1O2 (stereo not drawn) [Compound 273]	++
COC(=O)C1=CC2(C(Cc3ccccc3)N(C)c3ccccc3)C=CC1O2 (stereo not drawn) [Compound 284]	++
CNC(=O)C1=C(C(=O)OC)C2(C(Cc3ccccc3)Nc3ccccc3)C=CC1(C)O2 (stereo not drawn) [Compound 293]	++
COC(=O)C1=C(C(N)=O)C2(C)C=CC1(C(Cc1ccccc1)Nc1ccccc1)O2 (stereo not drawn) [Compound 294]	++
COC(=O)C1=C(C(=O)NNc2ccccc2)C2(C)C=CC1(C(Cc1ccccc1)Nc1ccccc1)O2 (stereo not drawn) [Compound 295]	++
COC(=O)C1=C(C(=O)Nc2ccc(Oc3ccccc3)cc2)C2C=CC1(C(Cc1ccccc1)Nc1ccccc1)O2 (stereo not drawn) [Compound 296]	++
COC(=O)C1=C(C(=O)OC)C2(C(Cc3ccccc3)Nc3ccccc3)CC(O)C1O2 (stereo not drawn) [Compound 302]	++
COC(=O)C1=C(C(=O)NC2CCN(C)CC2)C2CCC1(C(Cc1ccccc1)Nc1cc(F)cc(F)c1)O2 (stereo not drawn) [Compound 303]	++
COC(=O)C1=C(C(=O)Nc2ccc(C)c(F)c2)C2C=CC1(C(Cc1ccccc1)Nc1ccc(F)cc1)O2 (stereo not drawn) [Compound 346]	++
COC(=O)C1=C(C(=O)Nc2ccc(C)c(F)c2)C2C=CC1(C(Cc1ccccc1)Oc1ccccc1)O2 (stereo not drawn) [Compound 347]	++
CCCCC(Nc1cc(F)cc(F)c1)C12C=CC(O1)C(C(=O)NCCN(C)C)=C2C(=O)OC (stereo not drawn) [Compound 397]	+
CCCCC(Nc1cc(F)cc(F)c1)C12C=CC(O1)C(C(=O)NCCN(CC)CC)=C2C(=O)OC (stereo not drawn) [Compound 398]	+
C=CCC(Nc1ccccc1)C12C=CC(O1)C(C(=O)OC)=C2C(=O)OC (stereo not drawn) [Compound 407]	++
COC(=O)C1=C(C(=O)OC)C2(C(Cc3ccc(F)cc3)Nc3cc(F)cc(Cl)c3)C=CC1O2 (stereo not drawn) [Compound 451]	+++
COC(=O)C1=C(C(=O)OC)C2(C(Cc3ccccc3F)Nc3cc(F)cc(F)c3)C=CC1O2 (stereo not drawn) [Compound 454]	+++
COC(=O)C1=C(C(=O)Nc2ccc(OC)cc2)C2C=CC1(C(Cc1ccccc1)Oc1ccc(F)cc1)O2 (stereo not drawn) [Compound 479]	++
COC(=O)C1=C(C(=O)OC)C2(C(Cc3ccccc3)Oc3cccnc3)C=CC1O2 (stereo not drawn) [Compound 482]	+
COC(=O)C1=C(C(=O)Nc2ccc(C)c(F)c2)C2C=CC1(C(Cc1ccccc1)Oc1cccnc1)O2 (stereo not drawn) [Compound 484]	+

The remaining lines, values ahead:

SUMO	Compound
++	CCCNC(=O)C1=C(C(=O)OC)C2(C(Cc3ccccc3)Nc3ccccc3)C=CC1O2 (stereo not drawn) [Compound 150]
++	COC(=O)C1=C(C(=O)NCCO)C2C=CC1(C(Cc1ccccc1)Nc1ccccc1)O2 (stereo not drawn) [Compound 152]
++	COC(=O)C1=C(C(=O)NC(C)C)C2C=CC1(C(Cc1ccccc1)Nc1ccccc1)O2 (stereo not drawn) [Compound 153]
+	COC(=O)C1=C(C(=O)N(C)C)C2C=CC1(C(Cc1ccccc1)Nc1ccccc1)O2 (stereo not drawn) [Compound 154]
++	C#CCNC(=O)C1=C(C(=O)OC)C2(C(Cc3ccccc3)Nc3ccccc3)C=CC1O2 (stereo not drawn) [Compound 155]
+	CCCNC(=O)C1=C(C(=O)NCCC)C2(C(Cc3ccccc3)Nc3ccccc3)C=CC1O2 (stereo not drawn) [Compound 157]
+	CC(C)NC(=O)C1=C(C(=O)NC(C)C)C2(C(Cc3ccccc3)Nc3ccccc3)C=CC1O2 (stereo not drawn) [Compound 159]
+	COC(=O)C1=C(C(=O)N2CCN(C)CC2)C2C=CC1(C(Cc1ccccc1)Nc1ccccc1)O2 (stereo not drawn) [Compound 164]
+	COc1ccc(NC(=O)C2=C(C(=O)O)C3(C(Cc4ccccc4)Nc4ccccc4)C=CC2O3)cc1 (stereo not drawn) [Compound 175]
+	COC(=O)C1=C(C(=O)OC)C2(C(CCCN3CCOCC3)Nc3ccccc3)C=CC1O2 (stereo not drawn) [Compound 193]
++	COC(=O)C1=C(C(=O)Nc2ccc(OC)cc2)C2C=CC1(C(Cc1ccccc1)Nc1ccccc1)O2 (stereo not drawn) [Compound 194]
+	COC(=O)C1=C(C(=O)Nc2ccc(OC(F)(F)F)cc2)C2C=CC1(C(Cc1ccccc1)Nc1ccccc1)O2 (stereo not drawn) [Compound 196]
++	COC(=O)C1=C(C(=O)Nc2ccn(C)n2)C2C=CC1(C(Cc1ccccc1)Nc1ccccc1)O2 (stereo not drawn) [Compound 197]
+	COC(=O)C1=C(C(=O)NC2CCN(C(=O)OC(C)(C)C)CC2)C2C=CC1(C(Cc1ccccc1)Nc1ccccc1)O2 (stereo not drawn) [Compound 198]
++	COC(=O)C1=C(C(=O)Nc2ccc(OC)nc2)C2C=CC1(C(Cc1ccccc1)Nc1ccccc1)O2 (stereo not drawn) [Compound 199]
+	NC(=O)C1=C(C(N)=O)C2(C(Cc3ccccc3)Nc3ccccc3)C=CC1O2 (stereo not drawn) [Compound 202]
+++	COC(=O)C1=C(C(=O)NCCN2CCOCC2)C2C=CC1(C(Cc1ccccc1)Nc1ccccc1)O2 (stereo not drawn) [Compound 222]
+++	CCOC(=O)C1=C(C(=O)OCC)C2(C(Cc3ccccc3)Nc3ccccc3)C=CC1O2 (stereo not drawn) [Compound 232]
+	CCOc1cccc(NC(Cc2ccccc2)C23C=CC(O2)C(C(=O)O)=C3C(=O)OC)c1 (stereo not drawn) [Compound 246]
++	CCOc1cccc(NC(Cc2ccccc2)C23C=CC(O2)C(C(=O)NC)=C3C(=O)OC)c1 (stereo not drawn) [Compound 250]
+	COC(=O)C1=C(C(=O)NC2CCN(C)CC2)C2(C)C=CC1(C(Cc1ccccc1)Nc1ccccc1)O2 (stereo not drawn) [Compound 268]
++	COC(=O)C1=C(C(=O)OC)C2(C(Cc3ccccc3)Nc3ccccc3F)C=CC1O2 (stereo not drawn) [Compound 270]
+++	COC(=O)C1=C(C(=O)NC2CCOCC2)C2C=CC1(C(Cc1ccccc1)Nc1ccccc1)O2 (stereo not drawn) [Compound 275]
++	COC(=O)C1=C(C(=O)OC2CCN(C)CC2)C2C=CC1(C(Cc1ccccc1)Nc1ccccc1)O2 (stereo not drawn) [Compound 286]
+	COC(=O)C1=C(C(=O)NC2CCN(c3ccccc3)CC2)C2C=CC1(C(Cc1ccccc1)Nc1ccccc1)O2 (stereo not drawn) [Compound 290]
++	COC(=O)C1=C(C(=O)Nc2ccc(N3CCN(C)CC3)cc2)C2C=CC1(C(Cc1ccccc1)Nc1ccccc1)O2 (stereo not drawn) [Compound 291]
+	COC(=O)C1=C(C(=O)OC)C2(C(Nc3ccccc3)c3ccc(CN4CCOCC4)cc3)C=CC1O2 (stereo not drawn) [Compound 413]

Reference: patent US11578079B2, “SUMO inhibitor compounds and uses thereof” (CITY OF HOPE, priority 2018, dated 2023)
